The test system of assay [1] is HEK293-EBNA1t (clone 6E) cells. Briefly: Effect of FGF2 co-expression on transient SEAP expression in HEK293-EBNA1t cells. To be noted: 25% pTT-SEAP, 0-70% FGF2 plasmid; 7 days post-transfection. The format is cell-based, human. As to the method: (§1) Secreted alkaline phosphatase activity determination: SEAP activity is measured as previously described using the colorimetric substrate paranitrophenyl phosphate (Durocher et al, 2000).
(§2) Referring to FIG. 9, graphs are shown illustrating the effect of FGF2 (bFGF) co-expression on transient gene expression in HEK293-EBNA1t (clone 6E) cells (upper panel) and CHO-EBNA1c (clone 3E7) cells (lower panel). The HEK293-EBNA1t and CHO-EBNA1c cells were transfected with 25% pTT-SEAP vector and increasing amounts (0%, 15%, 30%, 45%, 60% and 70%) of FGF2-encoding pTT plasmid (the overall content of DNA was kept constant with non-coding stDNA). SEAP activity (OD/min at 410 nm) was measured in the supernatant 7 days post-transfection. From the upper panel it is evident that SEAP activity in HEK293-EBNA1t cells is decreased by co-expression of FGF2. From the lower panel it is evident that SEAP activity in CHO-EBNA1c cells is increased by co-expression of FGF2. […] Increased productivity in CHO cells may be due to a FGF-induced rRNA synthesis.

For assay [2], the system named is CHO-EBNA1c (clone 3E7) cells. As to the kind of experiment: Effect of FGF2 co-expression on transient SEAP expression in CHO-EBNA1c cells. The format is cell-based, Chinese Hamster. Conditions: 25% pTT-SEAP, 0-70% FGF2 plasmid; 7 days post-transfection. As to the method: as §1, §2
In assay [3] the test system is CHO-EBNA1c (clone 3E7) cells. Briefly: Effect of PKB (AKT) and valproic acid on transient gene expression (SEAP). The class given is cell-based, Chinese Hamster. Conditions: 0.25 mM VPA added 24 hours post-transfection; days 5 to 8 post-transfection. On the procedure:
as §1
Referring to FIG. 10, the effect of PKB (AKT) and valproic acid (VPA) on transient gene expression in CHO-EBNA1c (clone 3E7) cells is illustrated. The CHO-EBNA1c cells were transfected with a mixture of SEAP-encoding oriP plasmids (pTT-SEAP) and stuffer DNA or pTT-AKTdd vector (AKTdd is a dominant-positive mutant of AKT). In some cases, 0.25 mM VPA was added 24 hours post-transfection. SEAP activity (ΔA410/min) was measured at days 5 to 8 post-transfection.

With FGF2, the “SEAP activity on co-expression of FGF2” value in assay [1] is “decreased”; in assay [2] it was “increased”.
For `CCCC(CCC)C(=O)O` [valproic acid], the “effect on transient gene expression (SEAP activity)” value in assay [3] is listed as “increases transient gene expression”.
